The text below walks through data of article PMC6273491, “Two New Oleanane-Type Saponins with Anti-Proliferative Activity from Camellia oleifera Abel. Seed Cake” (Molecules, 2016).

pIC50: −log10 of the molar value.

What all share (type): cell-based
Assay [1] relates to human breast cancer cells MCF-7. The assay is described as follows: MTT anti-proliferative assay, MCF-7. The settings on record: MCF7, 72 h treatment, read-out: Cell Lines IC50 MCF-7. The protocol: (§1) The isolated Compounds 1, 2 and total seed cake saponins (C. oleifera) were tested against five human tumor cell lines (human hepatocellular carcinoma cells BEL-7402, human gastric carcinoma cells BGC-823, human breast cancer cells MCF-7, human promyelocytic leukemia cells HL-60 and human oral epidermoid carcinoma cells KB) using the MTT in vitro assay. Taxol, an anticancer agent, was used as the positive control.
(§2) The procedure for the anti-proliferative activity assay was performed according to the MTT reduction method using the human tumor cell lines BEL-7402, BGC-823, MCF-7, HL-60 and KB (Nanjing KeyGEN BioTECH Co., LTD, Jiangsu, China). In brief, the human tumor cell lines in culture medium (100 μL) were placed in a cell of a 96-well plate at a concentration of 4 × 10^3 cells/mL and incubated at 37 °C in 5% CO2 for 24 h. After 24 h, an additional 100 μL of complete medium with either: no additions (negative control), 0.1% DMSO (solvent control), 10 μg/mL Taxol (positive control), or different concentrations (0.391, 0.781, 1.562, 3.125, 6.25, 12.5, 25 and 50 μM) of 1 or 2 or total saponins (0.391, 0.781, 1.562, 3.125, 6.25, 12.5, 25 and 50 μg/mL). The treated cells were incubated as above for 72 h. […] The optical density (OD) of each well was measured at 490 nm using a Tunable Microplate Reader (EL-x800, BioTek Instruments, Winooski, VT, USA). […]
Background: Tetrazolium dyes change colour on reduction, which living cells bring about.

Assay [2] relates to five human tumor cell lines (BEL-7402, BGC-823, MCF-7, HL-60 and KB). The assay is described as follows: MTT anti-proliferative assay, panel of five human tumor cell lines. The conditions noted are these: 72 h treatment, range across BEL-7402, BGC-823, MCF-7, HL-60, KB, read-out: anti-proliferative activity IC50 values, range over five cell lines. As for the experimental part: as §1, §2

The test system of assay [3] is human hepatocellular carcinoma cells BEL-7402. The experiment in a line: MTT anti-proliferative assay, BEL-7402. The settings on record: 72 h treatment, read-out: Cell Lines IC50 BEL-7402. As for the experimental part:
as §1, §2

Assay [4] concerns human gastric carcinoma cells BGC-823. The experiment in a line: MTT anti-proliferative assay, BGC-823. The conditions noted are these: 72 h treatment, read-out: Cell Lines IC50 BGC-823. The protocol: as §1, §2
The subject of assay [5] is human promyelocytic leukemia cells HL-60. The experiment in a line: MTT anti-proliferative assay, HL-60. The conditions noted are these: 72 h treatment, read-out: Cell Lines IC50 HL-60. As for the experimental part: as §1, §2
Assay [6] concerns human oral epidermoid carcinoma cells KB. The experiment in a line: MTT anti-proliferative assay, KB. The conditions noted are these: 72 h treatment, read-out: Cell Lines IC50 KB. As for the experimental part: as §1, §2

As usually defined, the pIC50 is the negative decadic logarithm of the IC50, by convention in mol/L. Consider `CC=C(C)C(=O)OC1CC(C)(C)CC2C3=CCC4C5(C)CCC(OC6OC(C(=O)OC)C(O)C(OC7OC(CO)C(O)C(O)C7OC7OC(CO)C(O)C(O)C7O)C6OC6OC(CO)C(O)C(O)C6O)C(C)(C=O)C5CCC4(C)C3(C)CC(O)C12CO` [Compound 1, 16α-hydroxy-22α-O-angeloyl-23α-aldehyde-28-dihydroxymethylene-olean-12-ene-3β-O-[β-D-galacto-pyranosyl-(1→2)]-[β-D-glucopyranosyl-(1→2)-β-D-galactopyranosy-(1→3)]-β-D-glucopyranosid-uronic acid methyl ester], for which the negative-log IC50 (pIC50) in assay [1] is 4.82; in assay [2], 4.82 to 5.19; in assay [3], 4.98; in assay [4], 4.95; in assay [5], 5.19; in assay [6] it was 4.91.
Consider `CC=C(C)C(=O)OC1CC(C)(C)CC2C3=CCC4C5(C)CCC(OC6OC(C(=O)OC)C(O)C(OC7OC(CO)C(O)C(O)C7O)C6OC6OC(CO)C(O)C(O)C6O)C(C)(C=O)C5CCC4(C)C3(C)CC(O)C12CO` [Compound 2, 16α-hydroxy-22α-O-angeloyl-23α-aldehyde-28-dihydroxymethylene-olean-12-ene-3β-O-[β-D-galactopyranosyl-(1→2)]-[β-D-galactopyranosyl-(1→3)]-β-D-glucopyranosiduronic acid methyl ester], for which the negative-log IC50 (pIC50) in assay [1] is 5.41; in assay [2], 5.26 to 5.74; in assay [3], 5.37; in assay [4], 5.26; in assay [5], 5.75; in assay [6], 5.46.
